Measurements published in patent US11084798B1, “2-oxoquinazoline derivatives as methionine adenosyltransferase 2A inhibitors” (IDEAYA BIOSCIENCES, INC., priority 2018, dated 2021).

Biological target: hMAT2A (Homo sapiens (Human), UniProt P31153)
Test: Malachite Green Assay (MAT2A enzyme inhibition)
Assay type: biochemical
Conditions: hMAT2A 50 nM, substrates 500 uM each
Procedure: The ability of the compound of present disclosure to inhibit MAT2A enzyme was determined using the Malachite Green or Phosphate Sensor Fluorescence Assay described below.
L-methionine Substrate: Alfa Aesar catalog #J61904
ATP Substrate: Alfa Aesar cat #J60336
Malachite Green Detection Reagent: Millipore Sigma catalog #MAK307-1KT
Assay buffer: 50 mM Tris, pH 7.5/50 mM KCl/10 mM MgCl2/0.01% Brij-35/1 mM DTT/0.1% BGG
The plate was centrifuged at 1000 rpm for 1 minute and then incubated at room temperature for 1 hour. 5 μL of malachite green detection reagent was added to all the test wells and the plate was centrifuged at 1000 rpm for 1 minute and then incubated at room temperature for 30 minutes. The plate was read for absorbance at 620 nm on a plate reader (e.g., Infinite M1000).

Sequence of hMAT2A (P31153 whole entry): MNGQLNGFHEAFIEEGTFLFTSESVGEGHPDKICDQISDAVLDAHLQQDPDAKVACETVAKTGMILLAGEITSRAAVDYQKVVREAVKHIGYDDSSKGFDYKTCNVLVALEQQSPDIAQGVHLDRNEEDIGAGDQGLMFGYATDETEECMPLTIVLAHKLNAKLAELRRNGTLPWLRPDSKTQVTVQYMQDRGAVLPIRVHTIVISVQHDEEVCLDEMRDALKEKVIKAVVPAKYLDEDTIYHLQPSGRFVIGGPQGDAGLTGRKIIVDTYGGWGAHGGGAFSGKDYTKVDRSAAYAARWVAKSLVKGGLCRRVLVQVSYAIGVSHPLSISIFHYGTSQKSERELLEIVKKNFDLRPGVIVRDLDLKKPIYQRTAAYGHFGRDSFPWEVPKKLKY

IC50: 0.2 to 0.5 µM
Substance: 7-chloro-4-(dimethylamino)-1-(3-(2-phenoxyethyl)phenyl)quinazolin-2(1H)-one [Example 10]
